These results are taken from patent US6432948B1, “USE OF 7-(2-OXA-5,8-DIAZABICYLCO[4.3.0]NON-8-YL)-QUINOLONE CARBOXYLIC ACID AND NAPHTHYRIDON CARBOXYLIC ACID DERIVATIVES FOR THE TREATMENT OF HELIOBACTER PYLORI INFECTIONS AND ASSOCIATED GASTRODUODENAL DISEASES” (Bayer Aktiengesellschaft, priority 1996, dated 2002).

SMILES strings stand for the structures. Values after ≈ are worked out from the molar mass of the structure shown. Like-named read-outs stand apart in the source and are kept apart here.

Series [1] deals with H. pylori clinical isolate 008. The series is described as follows: MIC, agar dilution test. In kind it is cell-based. As to conditions: Helicobacter pylori, Columbia agar or Basis 2 agar with 10% lysed horse blood, 37° C., 48-72 hours, read-out: MIC (mg/l) H. pylori 008. How it is done: For inoculation, fresh Helicobacter cultures from liquid culture or suspension of the bacteria from agar plates were used. The inoculated agar plates were incubated at 37° C. in an atmosphere containing 5-10% of CO2 for 48-72 hours.
For orientation: In agar dilution, organisms are placed on agar that contains the substance at set levels.

A further series deals with H. pylori NCTC 1163 7. In words: MIC, agar dilution test. The format is cell-based. As to conditions: Helicobacter pylori. How it is done:
. The test substances were tested in replica dishes, which contained falling concentrations of the active compound at in each case doubled dilution. For inoculation, fresh Helicobacter cultures from liquid culture or suspension of the bacteria from agar plates were used. The inoculated agar plates were incubated at 37° C. in an atmosphere containing 5-10% of CO2 for 48-72 hours. The MIC value (mg/l) which was read off indicates the lowest active compound concentration at which no growth was to be detected using the naked eye. The following Helicobacter isolates were used: H. felis ATCC 49179, H. pylori NCTC 1163 7, H. pylori clinical isolate 008.

The next series concerns H. felis ATCC 49179. As to conditions: for Clearance % / Clearance (animals cleared / animals per group): infected mice, 2 × 10 mg/kg, 70 day treatment as printed in table title (7 days elsewhere in the source), 5 animals per group; for Eradication of H. felis in the mouse model, monotherapy: therapeutically used doses. How it is done: The bacteria are administered by stomach tube as a suspension (0.1 ml containing 10^8-10^9 bacteria) 4 times in the course of 7 days. Alternatively to this, stomach homogenates of previously infected mice were used for infection.
3-5 days after establishment of the infection, the treatment with test preparations was begun. […] In some cases, the bacterial eradication was also determined 2-4 weeks after the end of treatment. Following the “CLO” test used in clinical diagnosis, a urease test on a microtitre basis was employed. Defined stomach biopsy samples were tested for colour change within 24 hours.

The mark [2] stands for this setting: NCTC1163, agar dilution test, Columbia agar or Basis 2 agar with 10% lysed horse blood, 37° C., 48-72 hours, read-out: MIC (mg/l) H. pylori 11637.

The melting point is the temperature, or range, at which the solid turns liquid. As to `O=C(O)c1cn([C@@H]2C[C@H]2F)c2c(Cl)c(N3C[C@@H]4NCCO[C@@H]4C3)c(F)cc2c1=O` (mixture of isomers) [Example 20, 8-Chloro-6-fluoro-1-(trans-2-fluorocyclopropyl)-1,4-dihydro-7-((1R,6S)-2-oxa-5,8-diazabicyclo[4.3.0]non-8-yl)-4-oxo-3-quinolinecarboxylic acid], the melting point is 160 to 164 °C (dec.).
For `COc1c(N2C[C@@H]3NCCO[C@@H]3C2)c(F)cc2c(=O)c(C(=O)O)cn(C3CC3)c12.Cl` [Example 6, 1-Cyclopropyl-6-fluoro-8-methoxy-7-[(1R,6S)-2-oxa-5,8-diazabicyclo[4.3.0]non-8-yl]-1,4-dihydro-4-oxo-3-quinolinecarboxylic acid hydrochloride], the MIC (in series [1]; in the series on H. pylori NCTC 1163 7 (setting [2])) was 0.06 mg/L each time.
For the compound `N#Cc1c(N2CC3NCCOC3C2)c(F)cc2c(=O)c(C(=O)O)cn(C3CC3)c12` (centres unmarked) [Example 1A], the MIC in series [1] stood at 0.06 mg/L (≈ 0.151 µM). Moreover, the “Eradication of the bacterium” value in the series on H. felis ATCC 49179 (10-day treatment of the mice with 2×10 mg/kg) is recorded as “eradication of the bacterium”. Also, in the series on H. felis ATCC 49179, the Clearance % is recorded as 100% and the “Clearance (animals cleared / animals per group)” value is given as 5/5.
Take `CCn1cc(C(=O)O)c(=O)c2cc(F)c(N3CCNC(C)C3)c(F)c21` (centres unmarked) [lomefloxacin, reference compound]: the “Eradication of H. felis in the mouse model, monotherapy” value (shortened to “Eradication of H. felis”) in the series with H. felis ATCC 49179 (monotherapeutic treatment) is given as “not able to lead to an eradication”.
`O=C(O)c1cn([C@@H]2C[C@H]2F)c2nc(N3C[C@@H]4NCCO[C@@H]4C3)c(F)cc2c1=O` (mixture of isomers) [Example 21, 6-Fluoro-1-(trans-2-fluorocyclopropyl)-1,4-dihydro-7-((1R,6s)-2-oxa-5,8-diazabicyclo[4.3.0]non-8-yl)-4-oxo-1,8-naphthyridine-3-carboxylic acid]: the melting point was 310 to 314 °C (dec.).
In the case of `Cl.O=C(O)c1cn([C@@H]2C[C@@H]2F)c2c(F)c(N3C[C@@H]4NCCO[C@@H]4C3)c(F)cc2c1=O`, the melting point is 275 to 280 °C (dec.).
Still for that read-out and setting: then `O=C(O)c1cn([C@@H]2C[C@@H]2F)c2cc(N3C[C@@H]4NCCO[C@@H]4C3)c(F)cc2c1=O` (mixture of isomers) [Example 15, 6-Fluoro-1-(cis-2-fluorocyclopropyl)-1,4-dihydro-7-((1R,6S)-2-oxa-5,8-diazabicyclo[4.3.0]non-8-yl)-4-oxo-3-quinolinecarboxylic acid], with 236 to 238 °C (dec.).
In the case of `CN1COc2c(N3CC4NCCOC4C3)c(F)cc3c(=O)c(C(=O)O)cn1c23` [Example 2, 9-Fluoro-3-methyl-10-((1S,6S)-2-oxa-5,8-diazabicyclo[4.3.0]non-8-yl)-7-oxo-2,3-dihydro-7H-pyrido[1,2,3-d.e][1,3,4]benzoxadiazine-6-carboxylic acid], the MIC in series [1] was determined as 0.06 mg/L (≈ 0.154 µM). Moreover, in the series with H. felis ATCC 49179, the Clearance % is reported as 100% and the “Clearance (animals cleared / animals per group)” value is 5/5.
For the compound `O=C(O)c1cn(C2CC2)c2c(OC(F)F)c(N3CC4NCCOC4C3)c(F)cc2c1=O` [Example 8, 1-Cyclopropyl-8-difluoromethoxy-6-fluoro-1,4-dihydro-7-((1S,6S)-2-oxa-5 8-diazabicyclo[4.3.0]non-8-yl)-4-oxo-3-quinolinecarboxylic acid], the MIC (in series [1]; in the series with H. pylori NCTC 1163 7 (setting [2])) was 0.06 mg/L (≈ 0.137 µM) throughout.
Regarding `CC(CF)(CF)n1cc(C(=O)O)c(=O)c2cc(F)c(N3C[C@@H]4NCCO[C@@H]4C3)cc21` [Example 4, 1-(1-Fluoromethyl-1-methyl-2-fluoroethyl)-6-fluoro-7-[(1R,6S)-2-oxa-5,8-diazabicyclo[4.3.0]non-8-yl]-1,4-dihydro-4-oxo-3-quinolinecarboxylic acid], the MIC in series [1] was found to be 0.25 mg/L (≈ 0.588 µM); in the series with H. pylori NCTC 1163 7 (setting [2]) it was 0.06 mg/L (≈ 0.141 µM).
Taken in the same sequence, the figures for `COc1c(N2C[C@@H]3NCCO[C@H]3C2)c(F)cc2c(=O)c(C(=O)O)cn(C3CC3)c12.Cl` [Example 13] were 0.125 mg/L and 0.06 mg/L.
Take `O=C(O)c1cn(C2CC2)c2c(Cl)c(N3C[C@@H]4CCCN[C@@H]4C3)c(F)cc2c1=O` [BAY Y 3118, 8-chloro-1-cyclopropyl-7-([S,S]-2,8-diazabicyclo[4.3.0]non-8-yl)-6-fluoro-1,4-dihydro-4-oxo-3-quinolinecarboxylic acid, reference compound]: the “Death of animals on account of toxicity at eradicating treatment” value in the series with H. felis ATCC 49179 (mouse model, monotherapeutic treatment) is “a large part of the animals not dying on account of the toxicity of the compound”. Further, the “Eradication of H. felis” value in the series with H. felis ATCC 49179 (monotherapeutic treatment) is “no eradication of H. felis can be achieved”.
As to `O=C(O)c1cn(C2CC2)c2cc(N3CCNCC3)c(F)cc2c1=O` [Ciprofloxacin, ciprofloxacin, reference compound], the MIC with H. pylori NCTC 1163 7 (NCTC1163, read-out: MIC (mg/l) H. pylori 11637) was 0.125 mg/L (≈ 0.377 µM). The “Eradication of H. felis” value in the series on H. felis ATCC 49179 (monotherapeutic treatment) was “not able to lead to an eradication”.
With `Cl.O=C(O)c1cn([C@@H]2C[C@@H]2F)c2c(Cl)c(N3C[C@@H]4NCCO[C@@H]4C3)c(F)cc2c1=O`, the melting point is 210 to 215 °C (dec.).
Same read-out and setting: next, `O=C(O)c1cn([C@@H]2C[C@H]2F)c2cc(N3C[C@@H]4NCCO[C@@H]4C3)c(F)cc2c1=O` (mixture of isomers) [Example 19, 6-Fluoro-1-(trans-2-fluorocyclopropyl)-1,4-dihydro-7-((1 R,6S)-2-oxa-5,8-diazabicyclo[4.3.0]non-8-yl)-4-oxo-3-quinolinecarboxylic acid]: 270 to 274 °C (dec.).
